Data taken from patent US20160251403A1, “PEPTIDE COMBINATIONS AND USES THEREOF IN TREATING DUST MITE ALLERGY” (ALK-ABELLO A/S, priority 2013, published 2016).
No end group written: not given here.

Assays:
[1] = test system: allergen specific T cells; assay: T cell proliferation assay (72 h) with allergen-specific T cell lines from house dust mite allergic donors; % responders; format: cell-based, human; details: FIGS. 9b, 9c; subset of 22 donors having about 88% worldwide HLA Class II coverage
Protocol: This example includes a description of how peptides (singly or in combination) were screened for T cell reactivity in the donor population.
The T cell reactivity to peptides disclosed herein was determined either by measuring T cell proliferation of T cell lines specific to the allergens investigated or by measuring the cytokine production of allergen-specific T cells obtained from cultured PBMCs.
TCL specific to the six allergens rproDer p 1, rproDer f 1, rDer p 2, rDer f 2, Der p 4 and Der p 7, respectively or specific to the combination of all six allergens were established from peripheral blood mononuclear cells (PBMCs) of each donor.
PBMCs were isolated from freshly drawn heparinized blood by gradient centrifugation on lymphoprep (Nycomed, Norway), washed twice and re-suspended in RPMI 1640 medium with HEPES and ultraglutamine (Cambrex, Belgium) supplemented with 5% v/v AB-serum (Cambrex, Belgium), 100 units/ml penicillin, and 0.1 mg/ml streptomycin (Sigma, St Louis, USA) (referred to as AB-medium). Isolated PBMCs were CD8 depleted by Macs magnetic depletion according to the manufacturer's instructions (Miltenyi Biotec, Bergisch Gladbach, Germany). […]
The capacity of the different peptides to stimulate allergen specific T cells is analyzed in a standard 72 h T cell proliferation assay, as described in Henmar H et al., Clin Exp Immunol 2008; […]):316-23. […]

DRB1_1101 = DRB1_1101 (Homo sapiens, UniProt P01903+P01911, A100R/A169T/A87E/I96F/K41T/L162R/M171V/P40S/Q125H/Q178H/Q39Y/Q99D/R42S/S66Y/T262R/V115G/W38E); assay: Competitive MHC class II binding assay, DRB1_1101
DRB1_0301 = DRB1_0301 (Homo sapiens, UniProt P01903+P01911, A100K/A102G/A103R/A169T/F55Y/I96L/K41T/L162R/M171V/P40S/Q125H/Q178H/Q39Y/R42S/S66N/T106N/T262R/W38E/Y61H); assay: Competitive MHC class II binding assay, DRB1_0301
DPA10202-DPB10501 = molecular target: T1, DPA10202-DPB10501 (Homo sapiens, UniProt P04440+P20036, A42M/A65V/A84E/F191V/F64L/G113D/G114E/K142R/L158P/M116V/M62Q/P115A/Q81R/R125K/T114A/T199I/T259P/V234M); assay: Competitive MHC class II binding assay, DPA10202-DPB10501; details: positive binding at cutoff 1000 nM; read-out: HLA-DPA10202-DPB10501
T1 sequence (P04440 30-258 A65V/A84E/F64L/G113D/G114E/M116V/P115A/R125K/T199I/V234M): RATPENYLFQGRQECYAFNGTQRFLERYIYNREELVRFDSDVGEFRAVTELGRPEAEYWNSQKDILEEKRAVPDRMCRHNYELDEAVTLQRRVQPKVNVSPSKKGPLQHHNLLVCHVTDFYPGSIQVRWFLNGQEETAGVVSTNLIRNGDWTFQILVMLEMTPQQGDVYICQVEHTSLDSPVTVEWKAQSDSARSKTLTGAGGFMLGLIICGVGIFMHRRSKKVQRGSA
T1 sequence (P20036 29-260 A42M/F191V/K142R/L158P/M62Q/Q81R/T114A/T259P): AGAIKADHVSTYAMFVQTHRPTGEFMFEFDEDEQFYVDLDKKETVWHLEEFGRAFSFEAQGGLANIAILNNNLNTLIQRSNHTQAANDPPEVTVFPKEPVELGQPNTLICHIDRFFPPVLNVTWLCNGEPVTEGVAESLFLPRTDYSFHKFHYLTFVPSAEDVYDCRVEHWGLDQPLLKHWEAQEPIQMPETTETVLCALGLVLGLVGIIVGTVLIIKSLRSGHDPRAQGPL

DRB1_1201 = DRB1_1201 (Homo sapiens, UniProt P01903+P01911, A100R/A169T/D57E/D86V/F55L/H45Y/K41T/L162R/M171V/P40S/Q125H/Q178H/Q39Y/Q99D/R42G/S66L/T262R/V114A/V67L/W38E/Y59H/Y61H/Y89S); assay: Competitive MHC class II binding assay, DRB1_1201

Row | IC50 (DRB1_1101) | Compound | fraction of donors with T cell response (% donor response) [1] | also measured
1 |  | LVKGQQYDIKYTWNVPKIAPK [pep-131] | higher percentage donor response than the other peptides | 
2 | < 1000 nM | GSGSSWAFSGVAATESAYLA [pep-044] |  | 
3 |  | LVGDNGVLASAIATHAKIRD [pep-110] | higher percentage donor response than the other peptides | IC50 (DRB1_0301): < 1000 nM; IC50 (DPA10202-DPB10501): < 1000 nM
4 |  | CC[C@H](C)[C@H](NC(=O)CNC(=O)[C@@H](NC(=O)[C@@H](NC(=O)[C@@H](NC(=O)[C@H](C)NC(=O)[C@@H](NC(=O)[C@H](C)NC(=O)[C@H](CO)NC(=O)[C@H](Cc1c[nH]cn1)NC(=O)[C@@H](NC(=O)[C@H](CCC(N)=O)NC(=O)[C@H](C)NC(=O)[C@H](CC(C)C)NC(=O)[C@H](C)NC(=O)[C@H](CCC(=O)O)NC(=O)[C@@H](N)CCCNC(=N)N)[C@@H](C)O)[C@@H](C)CC)C(C)C)[C@@H](C)CC)[C@@H](C)CC)C(=O)N[C@@H](CCCCN)C(=O)N[C@@H](CC(=O)O)C(=O)N[C@@H](CC(C)C)C(=O)N[C@@H](CC(=O)O)C(=O)N[C@@H](C)C(=O)O [pep-130] |  | IC50 (DRB1_1201): < 1000 nM
5 | < 1000 nM | HAVNIVGYSNAQGVDYWIVR [pep-058] |  | 
